Consider two compounds from patent US12691100B2, “NMT inhibitor treatment of a senescence-associated disease or disorder of the liver” (Imperial College Innovations Limited, priority 2020, dated 2026).

Assay [1] has as its system HCT116 colon cancer cells. Put plainly: Senolytic survival assay, chemotherapy-induced senescence in cancer cells. Type of assay: cell-based, human. The settings on record: for Survival, senescent versus control cells: second experiment: doxorubicin 100 nM, etoposide 2 μM or cisplatin 100 μM, or DMSO, replenished after 72 h, 48 h more, FIGS. 7A-C. On the procedure:
IMR90 cells were used to generate inducible ER:RAS (hereinafter iRAS) cells to model Oncogene induced senescence (OIS), through retroviral infection of pLNC-ER:RAS-neo into IMR90 cells followed by selection with Neomycin. IMR90 cells containing the pLNC-ER:RAS plasmid backbone pLXSN were infected in parallel to assess leakiness in the pLNC-ER:RAS system. Treatment with 100 nM 4OHT (Sigma, in DMSO) was used to induce IMR90 ER:RAS cells to undergo oncogene induced senescence (OIS). Therapy induced senescence (TIS) was induced in IMR90 cells by treatment with 33 μM (50 ug/ml) bleomycin sulphate (Generon, HY-17565) for 24 hours, 20 μM palbociclib (Selleckchem, S1116) for 7 days or 100 nM doxorubicin (Cayman chemical, 15007) for 7 days. Senescence was induced in SK-HEP-1 cells by treatment with 2 μM etoposide (Sigma-Aldrich, E1383) for 7 days (FIGS. 4A-C). HCT-116 senescence was induced by 250 nM treatment with doxorubicin (Cayman chemical, 15007) for 48 hours followed by 5 days culture in media without chemotherapy (FIG. 5), or by treatment with 100 nM doxorubicin, 2 μM etoposide or 100 μM cisplatin for 3 days followed by 4 days culture in media without chemotherapy (FIGS. 6A-7C). Senescence was induced in MCF7 by 200 nM treatment with doxorubicin for 7 days, 2 μM etoposide for 7 days or 10 μM cisplatin for 7 days (FIGS. 8A-9C).
High-throughput microscopy survival assay—To assess senolytic effect of drugs, cells were cultured for 7 days, culture media was changed to DM0.5 media and drugs in DMSO were added (<5% v/v final concentration), drugs were replenished after 3 days if assay length was longer than 72 h. Wells were fixed in 4% PFA for 1 hour at day 10 to 14, washed 3 times with PBS and then stained with 1 μg/mL DAPI (w/v, PBS) for 10 minutes. Wells were then washed 3 times with PBS. Optionally plates could be stored at 4° C. for up to 2 weeks and DAPI stained. Image acquisition of DAPI stained cells was performed on an automated InCell Analyser 2000 (GE Healthcare®) and high-content analysis on the InCell Investigator 2.7.3 software used to quantify number of DAPI positive cells per well. […] Survival was measured as cell counts relative to DMSO treated quiescent or senescent cells.
In a first experiment, HCT116 colon cancer cells were treated with doxorubicin (to induce senescence), or DMSO (as a control). […] 7 days after adding the drugs with replenishment after 3 days, cells were fixed, imaged and cells numbers were quantified using high throughput microscopy. […]
In a second experiment, HCT116 were treated with doxorubicin, etoposide or cisplatin (to induce senescence) or DMSO (as a control). 7 days after treatment, BrdU incorporation (to assess cell division), SA-β-Galactosidase activity and p21^CIP1 expression (as markers of senescence) were analysed. […]

The test system of assay [2] is IMR90 ER:RAS cells. The experiment in a line: Intracellular levels of SASP cytokines IL-6 and IL-8 by immunofluorescence. The settings on record: 4OHT-induced senescent cells; 7 days after addition of the drugs; FIGS. 12A-C. Type of assay: cell-based, human. The procedure:
Immunofluorescence staining was carried out by first fixing wells of 96 well plate at desired timepoint for 1 hour using 4% PFA (w/v, in PBS) followed by washing 3 times with PBS. Wells were then permeabilized using 0.2% Triton® X-100 (v/v, PBS) for 10 min or with 0.5% Triton® X-100 (v/v, PBS) for COPI staining. Wells were then washed twice with PBS to halt permeabilization and then non-specific antibody binding blocked by incubation with a blocking solution for 1 hour at RT. Blocking solution contained 1% BSA (w/v, PBS) supplemented with 0.4% Fish Skin Gelatin (v/v, PBS). Primary antibodies were diluted in respective blocking solution (see ‘Antibodies’ for dilutions), blocking solution removed from well and incubated with primary antibody solution for 1 hour at RT. […]
High content image analysis was carried out using the InCell Investigator 2.7.3 software (GE Healthcare®). […] Quantification for nuclear staining was measured as average pixel intensity (grey scale) for the wavelength of fluorophore across the area of the nuclear mask. Cytoplasmic staining quantification was of either the average pixel intensity or the coefficient of variance of pixel intensities within collar area. […]
The intracellular levels of two SASP components, IL-6 and IL-8 were assessed using stained cells. […]

Molecules are shown by their SMILES.

On to `Cc1c(NS(=O)(=O)c2c(Cl)cc(-c3ccnc(N4CCNCC4)c3)cc2Cl)c(CC(C)C)nn1C` [Compound 2], for which the “Survival, senescent versus control cells” value in assay [1] is “preferentially kill cancer cells that undergo senescence after being treated with doxorubicin, etoposide or cisplatin”. Further, in assay [2], the “Intracellular levels of IL-6 and IL-8” value was “selectively resulted in an intracellular accumulation of these cytokines on senescent cells”.

`Cc1nn(C)c(C)c1CCOc1c(-c2ccc3c(c2)c(CN(C)C)nn3C)ccc(F)c1F` [Compound 1, 1-(5-(3,4-difluoro-2-(2-(1,3,5-trimethyl-1H-pyrazol-4-yl)ethoxy)phenyl)-1-methyl-1H-indazol-3-yl)-N,N-dimethylmethanamine]: in assay [1] (first experiment: doxorubicin or DMSO, compound added 7 days after induction, read 7 days later, FIG. 5), the “Survival (cell counts relative to DMSO), senescent versus control cells” value is reported as “preferentially kills cancer cells that undergo senescence after being treated with doxorubicin”. The “Survival, senescent versus control cells” value in assay [1] is “preferentially kill cancer cells that undergo senescence after being treated with doxorubicin, etoposide or cisplatin”. Further, the “Intracellular levels of IL-6 and IL-8” value in assay [2] is given as “selectively resulted in an intracellular accumulation of these cytokines on senescent cells”.
